Here are results for one compound from patent EP0754455A1, “PHARMACEUTICAL COMPOSITIONS BASED ON AMINOMETHYLINDOLES AND THEIR THERAPEUTICAL APPLICATION AS NEUROPROTECTORS IN PARKINSON AND ALZHEIMER DISEASES” (CONSEJO SUPERIOR INVESTIGACIONES CIENTIFICAS (CSIC), priority 1995, dated 1996).

Test [1] concerns the target T1, MAO-A (Mus musculus, UniProt Q64133).
T1 construct: the brains homogenised in potassium phosphate buffer 50 mM, pH 7.2; from tissue; host or cells: C57/BL mouse brain homogenate
T1 sequence (Q64133 1-526): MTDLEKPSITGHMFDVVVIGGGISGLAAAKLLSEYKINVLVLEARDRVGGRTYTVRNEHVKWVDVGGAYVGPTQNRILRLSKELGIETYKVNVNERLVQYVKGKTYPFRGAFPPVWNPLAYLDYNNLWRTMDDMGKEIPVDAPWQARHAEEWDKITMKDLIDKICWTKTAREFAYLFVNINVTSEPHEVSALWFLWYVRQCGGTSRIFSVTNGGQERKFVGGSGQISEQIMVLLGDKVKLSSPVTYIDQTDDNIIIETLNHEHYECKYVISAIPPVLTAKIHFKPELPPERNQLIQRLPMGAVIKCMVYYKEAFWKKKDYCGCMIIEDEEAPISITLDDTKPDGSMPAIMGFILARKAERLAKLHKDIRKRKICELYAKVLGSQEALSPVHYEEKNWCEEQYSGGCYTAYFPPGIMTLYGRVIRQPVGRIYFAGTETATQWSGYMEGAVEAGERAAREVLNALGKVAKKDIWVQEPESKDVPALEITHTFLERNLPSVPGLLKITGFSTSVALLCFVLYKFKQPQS
The test is described as follows: Ex vivo inhibition of brain MAO-A after i.p. administration. Format: in vivo, C57/BL mice. The settings on record: mouse brain homogenate 2 hours after i.p., l-deprenyl 10 mg/Kg, tested compound 4 mg/Kg. As for the experimental part:
The pharmacological assays were carried out on C57/BL mice. These animals are sensitive to the induction of the symptomatology of Parkinson's disease through the action of MPTP.
The animals were sacrificed by decapitation after 2 hours and the brains homogenised in potassium phosphate buffer 50 mM, pH 7.2. Determinations were made of the MAO-A and MAO-B activity in each case using radiometric methods.

The next test concerns the target T2, dopamine uptake carrier (Rattus norvegicus, UniProt P23977).
T2 construct: purified synaptosomes of brain striatal tissue from Sprague-Dawley rats; from tissue; host or cells: Sprague-Dawley rat brain striatum, purified synaptosomes
The experiment in a line: Dopamine re-uptake in purified synaptosomes of rat brain striatal tissue. Type of test: biochemical, Sprague-Dawley rats. The settings on record: substrate concentration 0.1 µM. As for the experimental part:
Kinetic studies of dopamine re-uptake were carried out in purified synaptosomes of brain striatal tissue from Sprague-Dawley rats.

The next test addresses T3, MAO-B (Homo sapiens, UniProt P27338).
T3 construct: performed using homogenated human cerebral cortex obtained from autopsies; from tissue; host or cells: post-mortem human cerebral cortex homogenate
T3 sequence (P27338 1-520): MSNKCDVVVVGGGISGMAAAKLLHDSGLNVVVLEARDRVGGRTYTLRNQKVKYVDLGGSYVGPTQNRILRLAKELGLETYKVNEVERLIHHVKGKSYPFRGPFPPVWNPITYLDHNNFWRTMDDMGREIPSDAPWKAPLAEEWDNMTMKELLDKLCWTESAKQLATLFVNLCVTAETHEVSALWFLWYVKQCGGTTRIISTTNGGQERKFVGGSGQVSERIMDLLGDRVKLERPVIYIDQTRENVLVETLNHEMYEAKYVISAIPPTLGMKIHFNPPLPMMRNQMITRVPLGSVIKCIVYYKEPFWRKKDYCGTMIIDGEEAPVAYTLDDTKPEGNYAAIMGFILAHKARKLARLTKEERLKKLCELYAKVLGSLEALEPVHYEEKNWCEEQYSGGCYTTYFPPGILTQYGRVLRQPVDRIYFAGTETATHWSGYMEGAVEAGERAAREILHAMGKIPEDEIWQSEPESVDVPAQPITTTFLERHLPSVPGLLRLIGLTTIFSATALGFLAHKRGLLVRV
The test is described as follows: MAO-B inhibition in homogenated human cerebral cortex. Type of test: biochemical. The text has this:
They were provided by Dr. Fco Javier González Oliván (Forensic Anatomic Institute of the Hospital Clínico Provincial in Barcelona).

Test [2] deals with T4, MAO-A (Rattus norvegicus, UniProt P21396).
T4 construct: human and rat tissue to obtain the isolated forms of monoamine oxidase A and B; from tissue
T4 sequence (P21396 1-526): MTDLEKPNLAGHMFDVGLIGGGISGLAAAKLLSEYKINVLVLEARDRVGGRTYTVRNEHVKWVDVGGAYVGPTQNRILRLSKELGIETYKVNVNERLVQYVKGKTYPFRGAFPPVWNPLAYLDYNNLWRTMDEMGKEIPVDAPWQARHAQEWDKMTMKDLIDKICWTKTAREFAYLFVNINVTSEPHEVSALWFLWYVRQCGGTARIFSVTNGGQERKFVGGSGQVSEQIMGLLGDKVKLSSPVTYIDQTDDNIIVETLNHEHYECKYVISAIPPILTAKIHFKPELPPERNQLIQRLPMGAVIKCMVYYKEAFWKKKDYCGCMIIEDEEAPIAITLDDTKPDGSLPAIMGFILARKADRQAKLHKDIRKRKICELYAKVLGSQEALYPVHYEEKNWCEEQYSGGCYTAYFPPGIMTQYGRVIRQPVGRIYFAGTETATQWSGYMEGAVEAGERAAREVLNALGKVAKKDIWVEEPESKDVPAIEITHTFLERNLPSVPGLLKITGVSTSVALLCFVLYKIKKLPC
The experiment in a line: Kinetic parameters of suicide-type inhibition, MAO-A. Type of test: biochemical, Sprague-Dawley rat. The text has this: Based on the apparent velocity constants of the first order (kapp) obtained for each inhibitor, calculations were made of the K1 and K^1c at (according to the method described by M. Avila et al. 1993, Biochem Pharmac 45, 2231-2237). K1 is the affinity constant of the first stage of the reaction and K1 MAO-A / K1 MAO-B the expression of the selectivity.
K^1cat is the velocity constant for the formation of the covalent irreversible complex during the second stage of the process. To compare the values of these constants towards the two forms of MAO, we express the inhibition efficacy as the ratio K^1cat/K1. The value of these constants (see Tables 2 and 3), is the result of three different experiments, with their corresponding SEM.

Usually remaining activity stands for the share of the control activity or signal that is left under treatment. Usually IC50 stands for the point on the concentration scale where inhibition reaches its midpoint.

T2 sequence (P23977 whole entry): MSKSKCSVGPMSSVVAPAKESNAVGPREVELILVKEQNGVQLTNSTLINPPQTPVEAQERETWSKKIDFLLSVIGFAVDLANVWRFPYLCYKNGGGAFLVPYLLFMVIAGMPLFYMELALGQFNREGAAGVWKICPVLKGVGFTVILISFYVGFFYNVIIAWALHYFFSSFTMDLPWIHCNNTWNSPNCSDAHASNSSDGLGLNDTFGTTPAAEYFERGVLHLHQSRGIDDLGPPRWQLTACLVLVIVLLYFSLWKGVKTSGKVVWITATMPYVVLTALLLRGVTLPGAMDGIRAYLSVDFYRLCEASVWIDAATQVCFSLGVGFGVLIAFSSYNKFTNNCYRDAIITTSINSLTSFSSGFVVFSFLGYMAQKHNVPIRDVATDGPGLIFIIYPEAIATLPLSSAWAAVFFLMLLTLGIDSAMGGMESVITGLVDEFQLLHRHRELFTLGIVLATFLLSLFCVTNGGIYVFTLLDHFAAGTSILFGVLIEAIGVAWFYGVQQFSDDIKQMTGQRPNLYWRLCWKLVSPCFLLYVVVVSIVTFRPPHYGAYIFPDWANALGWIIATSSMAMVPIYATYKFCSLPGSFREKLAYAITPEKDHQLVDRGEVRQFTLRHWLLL

With `C#CCNCc1cc2cc(OCc3ccccc3)ccc2[nH]1` [FA-73], the remaining activity at 4 mg/kg on MAO-A [1] (ip, control = 100%) is 96.2%. Further, the “MAO-A ACTIVITY” value on MAO-A [1] (control 485) is on record as 467. For the same compound, the IC50 at dopamine uptake carrier stood at 150000 nM; on MAO-B, 200 nM. Besides, the Ki on MAO-A [2] (MAO-A (A..), affinity constant of the first stage, three experiments ± SEM, read-out: K1) is 800 nM. Moreover, the “K^1cat / K1(10^-3)” value on MAO-A [2] (MAO-A, inhibition efficacy) is recorded as 0.1 10^-3. The “K^1cat” value at MAO-A [2] (MAO-A, velocity constant for formation of the covalent irreversible complex, ± SEM) came out at 0.087 ± 0.006 min⁻¹.
